According to patent publication US20260007758A1, “SO[…]-2 RECEPTOR (SST2R) NON-PEPTIDE DRUG CONJUGATES AND USES THEREOF” (Crinetics Pharmaceuticals, Inc., priority 2024, published 2026):
*1 amine or outer side, *2 acyl side, *3 side chain or, on linkers, in order; H or OH if unused. Where a SMILES comes first, the peptide text is derived from it. [ ]: non-standard residue; d: D form. The star is where a group is joined. X3 = Cc1cc(F)cc(-c2cnc(NCCNC(=O)CCOCCOCCOCCOCCC(=O)*)c(-c3nc4ccc(Cl)cc4[nH]3)c2N2CCC(N)CC2)c1; Dolaproine = CO[C@@H]([C@@H]1CCCN1)[C@@H](C)C(=O)O; Dil = CC[C@H](C)[C@H](NC)[C@@H](CC(=O)O)OC; PABC = O=C(OCc1ccc(N[*:1])cc1)[*:2]; X2 = C[C@@H](N*)[C@@H](O)c1ccccc1; Cit = NC(=O)NCCC[C@H](N)C(=O)O; NMeV = CN[C@H](C(=O)O)C(C)C; Ahx = NCCCCCC(=O)O

Assays:
Format in all cases: cell-based
[1] = target: T1, human somatostatin receptor subtype 2 (Homo sapiens, UniProt P30874); test: Functional assay for SSTR2 agonists (HTRF cAMP); settings: CHO-K1 cells stably expressing human SST2; NKH477-stimulated cAMP; 20 min at 37 C; read-out: hSST2 cAMP Avg EC50
T1 construct: expressed in transfected cells
Excerpt: General overview: All five SSTR subtypes are Gi coupled G-protein coupled receptors (GPCRs) that lead to decreases in intracellular cyclic AMP (cAMP) when activated by an agonist. Therefore, measurement of intracellular cAMP levels can be used to assess whether compounds of the invention are agonists of SSTR subtypes (John Kelly, Troy Stevens, W. Joseph Thompson, and Roland Seifert, Current Protocols in Pharmacology. 2005, 2.2.1-2.2). One example of an intracellular cAMP assay is described below.
Four days prior to the assay, 2,000 Chinese hamster ovary cells (CHO-K1, ATCC #CCL-61) stably expressing the human somatostatin receptor subtype 2 are plated in each well of a 96-well tissue culture-treated plate in Ham's F12 growth media (ThermoFisher #10-080-CM) supplemented with 10% donor bovine serum (Gemini Bio-Products #100-506), 100 U/mL penicillin; 100 ug/mL streptomycin, 2 mM L-glutamine (Gemini Bio-Products #400-110) and 0.2 mg/mL hygromycin B (GoldBio #31282-04-9). The cells are cultured at 37° C., 5% CO2 and 95% humidity. cAMP is measured with HTRF dynamic cAMP assay (Cisbio. #62AM5PEJ) per manufacturer's instructions. […] The cells are incubated for 20 minutes at 37° C. (the final concentration of the compounds of the invention are typically 0-10,000 nM). The cells are treated with 50 μL of lysis buffer (HRTF cAMP kit, Cisbio) and incubated at room temperature for 30 minutes with rotary shaking at 600 rpm, and then diluted with 150 μL of stimulation buffer and shaken for an additional five minutes at 300 rpm. The lysate is transferred to 384-well plates and incubated for 1-24 hours at room temperature, and cAMP accumulation is detected by d2-labeled cAMP and Anti-cAMP-Cryptate. The time-resolved fluorescent signal is read using a m1000 Pro (Tecan) or CLARIOStar (BMG Labtech) microplate reader, where the samples are excited with light at 340 nm and emission light is measured at 620 nm and 665 nm. The data is expressed as a calculation of the fluorescence ratio (665 nm/620 nm). The intracellular cAMP concentrations are calculated by regression to a standard curve and are plotted vs, the concentration of the compounds of the invention. The EC50 of the compounds are calculated using standard methods. All data manipulations are in GraphPad Prism v9 (GraphPad, San Diego, CA).

[2] = tested on: NCI-H524 human small cell lung cancer cells; test: H524 assay: inhibition of cell proliferation (CellTiter Glo); settings: 2 h treatment, washout, additional 70 h incubation
Method: NDCs of the present invention were assessed in an in vitro assay evaluating the inhibition of cell proliferation. NCI-H524 (ATCC) human small cell lung cancer cells were plated in 96-well V-bottom plates (Costar) at a concentration of 5,000 cells/well. 24 h later, the cells were treated for 2 h with a NDC. NDC starting dose was 1 uM and two-fold serial dilutions were done for a total of 11 points. After 2 h of treatment, cells were spun down, and the drug-containing media was removed, and fresh complete media was added and used to resuspend the cells, which were spun again. After removal of the media, the cells were resuspended in complete medium and incubated for an additional 70 h. Cell proliferation was assessed using the CellTiter Glo Assay according to the standard protocol (Promega). Luminescence was measured using a TECAN plate reader. Percent proliferation inhibition was calculated using the following formula: % inhibition=(Luminescence Control−Luminescence Treatment)/Luminescence Control*100. IC50 curves were generated using the nonlinear regression analysis (four-parameter) with GraphPad Prism 9.

SST2 = target: T2, SST2 (Homo sapiens, UniProt P30874); test: PathHunter CHO-K1 SST2 Internalization Assay; settings: PathHunter CHO-K1 SST2 cells; 90 min at 37 C; luminescence; read-out: Internalization EC50
T2 construct: host or cells: PathHunter CHO-K1 SST2 cells
Method: NDCs of the present invention were assessed in vitro using the human PathHunter CHO-K1 SST2 β-arrestin2 and PathHunter CHO-K1 SST2 Internalization Assays from DiscoverX. The CHO-K cells were seeded in 20 μLs of cell culture medium in a white-walled 384 well tissue culture-compatible plate at a density of 2500 cells/well. After a 48-hour incubation, cells were treated with 5 μLs of a 1:3 serially diluted SST2 NDC prepared at 5× concentration with a final top compound concentration of 10 uM for 90 min at 37 C and in 5% CO2. 11 dilutions were tested as well as one treatment that was compound free. After incubation, the media containing treatments were discarded and 20 μL of a working solution of Beta-Glo from Promega Beta-Go Assay System was added to each well. The plate was then incubated for 60 min at room temperature in the dark. Luminescence was measured using a Tecan plate reader. IC50 curves were generated using the nonlinear regression analysis (four-parameters) with GraphPad Prism 9. Results were the average of duplicates and are corrected for background.

T2 sequence (P30874 whole entry): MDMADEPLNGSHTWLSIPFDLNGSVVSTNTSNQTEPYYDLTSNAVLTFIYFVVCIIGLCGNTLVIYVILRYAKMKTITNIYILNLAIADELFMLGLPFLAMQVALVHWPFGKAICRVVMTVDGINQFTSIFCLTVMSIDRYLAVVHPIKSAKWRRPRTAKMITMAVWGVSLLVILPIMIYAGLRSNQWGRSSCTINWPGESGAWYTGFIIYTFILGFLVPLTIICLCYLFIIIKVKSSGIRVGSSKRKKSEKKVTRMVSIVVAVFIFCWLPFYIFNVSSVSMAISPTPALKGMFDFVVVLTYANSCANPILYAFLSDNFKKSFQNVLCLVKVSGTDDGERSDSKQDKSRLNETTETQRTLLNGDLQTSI
T1 sequence (P30874 whole entry): as above

Row | SMILES | EC50 [1] [nM] | EC50 [2] [nM] | EC50 (SST2) [nM]
1 | CC[C@H](C)[C@@H]([C@@H](CC(=O)N1CCC[C@H]1[C@H](OC)[C@@H](C)C(=O)N[C@H](C)[C@@H](O)c1ccccc1)OC)N(C)C(=O)[C@@H](NC(=O)[C@H](C(C)C)N(C)C(=O)OCc1ccc(NC(=O)[C@H](CCCNC(N)=O)NC(=O)[C@@H](NC(=O)CCCCCNC(=O)[C@H](CCC(N)=O)NC(=O)[C@H](CCC(N)=O)NC(=O)CCOCCOCCOCCOCCC(=O)NCCNc2ncc(-c3cc(C)cc(F)c3)c(N3CCC(N)CC3)c2-c2nc3ccc(Cl)cc3[nH]2)C(C)C)cc1)C(C)C [Compound 143] (X3-QQ[Ahx]V[Cit][PABC][NMeV]V[Dil][Dolaproine]-X2) | 0.4 | – | –
2 | CC[C@H](C)[C@@H]([C@@H](CC(=O)N1CCC[C@H]1[C@H](OC)[C@@H](C)C(=O)N[C@H](C)[C@@H](O)c1ccccc1)OC)N(C)C(=O)[C@@H](NC(=O)[C@H](C(C)C)N(C)C(=O)OCc1ccc(NC(=O)[C@H](C)NC(=O)[C@@H](NC(=O)[C@@H](CS(=O)(=O)O)NC(=O)CCOCCC(=O)NCCNc2ncc(-c3cc(C)cc(F)c3)c(N3CCC(N)CC3)c2-c2nc3ccc(Cl)cc3[nH]2)C(C)C)cc1C(=O)N1CC(C(=O)O)C1)C(C)C [Compound 78] | 0.22 | 350 | 8.7
3 | CC[C@H](C)[C@@H]([C@@H](CC(=O)N1CCC[C@H]1[C@H](OC)[C@@H](C)C(=O)N[C@H](C)[C@@H](O)c1ccccc1)OC)N(C)C(=O)[C@@H](NC(=O)[C@H](C(C)C)N(C)C(=O)OCc1ccc(NC(=O)[C@H](CCCNC(N)=O)NC(=O)[C@@H](NC(=O)c2cc(NC(=O)CCCC(=O)N(C)CC(=O)NCCNc3ncc(-c4cc(C)cc(F)c4)c(N4CCC(N)CC4)c3-c3nc4ccc(Cl)cc4[nH]3)cc(C(=O)NC[C@@H](N)C(=O)O)c2)C(C)C)cc1)C(C)C [Compound 171] | 0.33 | 14 | 8.3
4 | CC[C@H](C)[C@@H]([C@@H](CC(=O)N1CCC[C@H]1[C@H](OC)[C@@H](C)C(=O)N[C@H](C)[C@@H](O)c1ccccc1)OC)N(C)C(=O)[C@@H](NC(=O)[C@H](C(C)C)N(C)C(=O)OCc1ccc(NC(=O)[C@H](C)NC(=O)[C@@H](NC(=O)CCOCCC(=O)N(C)CC(=O)NCCNc2ncc(-c3cc(C)cc(F)c3)c(N3CCC(N)CC3)c2-c2cc3ccc(Cl)cc3[nH]2)C(C)C)c(O[C@@H]2O[C@H](C(=O)NCCN)[C@@H](O)[C@H](O)[C@H]2O)c1)C(C)C [Compound 46] | 0.23 | – | –
5 | CC[C@H](C)[C@@H]([C@@H](CC(=O)N1CCC[C@H]1[C@H](OC)[C@@H](C)C(=O)N[C@H](C)[C@@H](O)c1ccccc1)OC)N(C)C(=O)[C@@H](NC(=O)[C@H](C(C)C)N(C)C(=O)OCc1ccc(NC(=O)[C@H](CCCNC(N)=O)NC(=O)[C@@H](NC(=O)CCOCCC(=O)NCCNc2ncc(-c3cc(C)cc(F)c3)c(N3CCC(N)CC3)c2-c2nc3ccc(Cl)cc3[nH]2)C(C)C)cc1C(=O)O)C(C)C [Compound 7] | 0.26 | – | –
6 | CC[C@H](C)[C@@H]([C@@H](CC(=O)N1CCC[C@H]1[C@H](OC)[C@@H](C)C(=O)N[C@H](C)[C@@H](O)c1ccccc1)OC)N(C)C(=O)[C@@H](NC(=O)[C@H](C(C)C)N(C)C(=O)OCc1ccc(NC(=O)[C@H](CCCNC(N)=O)NC(=O)[C@@H](NC(=O)CCOCCC(=O)NCCNc2ncc(-c3cc(C)cc(F)c3)c(N3CCC(N)CC3)c2-c2nc3ccc(Cl)cc3[nH]2)C(C)C)cc1C(=O)NCC(=O)O)C(C)C [Compound 60] | 0.17 | – | –
7 | CC[C@H](C)[C@@H]([C@@H](CC(=O)N1CCC[C@H]1[C@H](OC)[C@@H](C)C(=O)N[C@H](C)[C@@H](O)c1ccccc1)OC)N(C)C(=O)[C@@H](NC(=O)[C@H](C(C)C)N(C)C(=O)OCc1ccc(NC(=O)[C@H](CCCNC(N)=O)NC(=O)[C@@H](NC(=O)CCOCCC(=O)NCCNc2ncc(-c3cc(C)cc(F)c3)c(N3CCC(N)CC3)c2-c2nc3ccc(Cl)cc3[nH]2)C(C)C)c(O[C@@H]2O[C@H](C(=O)NCCNC(=O)CCCCCCCCCCCCCCC(=O)O)[C@@H](O)[C@H](O)[C@H]2O)c1)C(C)C [Compound 53] | 0.48 | 200 | –
8 | CC[C@H](C)[C@@H]([C@@H](CC(=O)N1CCC[C@H]1[C@H](OC)[C@@H](C)C(=O)N[C@H](C)[C@@H](O)c1ccccc1)OC)N(C)C(=O)[C@@H](NC(=O)[C@H](C(C)C)N(C)C(=O)OCc1ccc(NC(=O)[C@H](C)NC(=O)[C@@H](NC(=O)CCOCCC(=O)N(C)CC(=O)NCCNc2ncc(-c3cc(C)cc(F)c3)c(N3CCC(N)CC3)c2-c2cc3ccc(Cl)cc3[nH]2)C(C)C)c(O[C@@H]2O[C@H](C(=O)NCCN)[C@@H](O)[C@H](O)[C@H]2O)c1)C(C)C [Compound 47] | 0.31 | – | –
9 | CC[C@H](C)[C@@H]([C@@H](CC(=O)N1CCC[C@H]1[C@H](OC)[C@@H](C)C(=O)N[C@H](C)[C@@H](O)c1ccccc1)OC)N(C)C(=O)[C@@H](NC(=O)[C@H](C(C)C)N(C)C(=O)OCc1ccc(NC(=O)[C@H](CCCNC(N)=O)NC(=O)[C@@H](NC(=O)CCCC(=O)N(C)CC(=O)N(C)CC(=O)N(C)CC(=O)NCCNc2ncc(-c3cc(C)cc(F)c3)c(N3CCC(N)CC3)c2-c2nc3ccc(Cl)cc3[nH]2)C(C)C)c(O[C@@H]2O[C@H](C(=O)O)[C@@H](O)[C@H](O)[C@H]2O)c1)C(C)C [Compound 130] | – | 3800 | –
10 | CC[C@H](C)[C@@H]([C@@H](CC(=O)N1CCC[C@H]1[C@H](OC)[C@@H](C)C(=O)N[C@H](C)[C@@H](O)c1ccccc1)OC)N(C)C(=O)[C@@H](NC(=O)[C@H](C(C)C)N(C)C(=O)OCc1ccc(NC(=O)[C@H](C)NC(=O)[C@@H](NC(=O)CCCC(=O)N(C)CC(=O)NCCNc2ncc(-c3cc(C)cc(F)c3)c(N3CCC(N)CC3)c2-c2nc3ccc(Cl)cc3[nH]2)C(C)C)c(O[C@@H]2O[C@H](C(=O)NCCN)[C@@H](O)[C@H](O)[C@H]2O)c1)C(C)C [Compound 45] | 1.3 | – | –
11 | CC[C@H](C)[C@@H]([C@@H](CC(=O)N1CCC[C@H]1[C@H](OC)[C@@H](C)C(=O)N[C@H](C)[C@@H](O)c1ccccc1)OC)N(C)C(=O)[C@@H](NC(=O)[C@H](C(C)C)N(C)C(=O)OCc1ccc(NC(=O)[C@H](C)NC(=O)[C@@H](NC(=O)C[C@@H](N)C(=O)NCCOCCC(=O)NCCNc2ncc(-c3cc(C)cc(F)c3)c(N3CCC(NC)CC3)c2-c2nc3ccc(Cl)cc3[nH]2)C(C)C)c(O[C@@H]2O[C@H](C(=O)O)[C@@H](O)[C@H](O)[C@H]2O)c1)C(C)C [Compound 135] | 0.42 | – | 3.6
12 | CC[C@H](C)[C@@H]([C@@H](CC(=O)N1CCC[C@H]1[C@H](OC)[C@@H](C)C(=O)N[C@H](C)[C@@H](O)c1ccccc1)OC)N(C)C(=O)[C@@H](NC(=O)[C@H](C(C)C)N(C)C(=O)OCc1ccc(O[C@@H]2O[C@H](C(=O)O)[C@@H](O)[C@H](O)[C@H]2O)c(NC(=O)[C@H](CCCNC(N)=O)NC(=O)[C@@H](NC(=O)CCOCCC(=O)NCCNc2ncc(-c3cc(C)cc(F)c3)c(N3CCC(N)CC3)c2-c2nc3ccc(Cl)cc3[nH]2)C(C)C)c1)C(C)C [Compound 248] | – | 3.2 | –
